Values belong to the compound of their own block, whether it stands above or below them.
Assays:
[1] = tested on: caterpillars of the army worm (Spodoptera frugiperda); assay: Spodoptera frugiperda test; format: in vivo; conditions: 1000 ppm, after 7 days, cabbage leaves dipped
From the text: Spodoptera frugiperda Test

[2] = tested on: larvae of the mustard beetle (Phaedon cochleariae); assay: Phaedon larvae test; conditions: 1000 ppm, after 7 days, cabbage leaves dipped
[3] = logP determination by HPLC (EEC Directive 79/831 Annex V.A8); format: physicochemical
Meloidogyne incognita = assay: Meloidogyne test; format: in vivo; conditions: 20 ppm, after 14 days, lettuce
Method: Containers are filled with sand, solution of active compound, Meloidogyne incognita egg/larvae suspension and lettuce seeds. The lettuce seeds germinate and the plants develop. On the roots, galls are formed.
After the desired period of time, the nematicidal action is determined in % using gall formation as a measure. 100% means that no galls were found; 0% means that the number of galls on the treated plants corresponds to that of the untreated control.

[4] = tested on: greenhouse red spider mite (Tetranychus urticae); assay: Tetranychus test (OP-resistant/dip treatment); format: in vivo; conditions: 0.1%, after 7 days, bean plants dipped
From the text: Tetranychus Test (OP-resistant/Dip Treatment)

[5] = tested on: Trichinella spiralis larvae; assay: Trichinella spiralis in-vitro; parameters: key: 0 means no activity; 1 means weak activity; 2 means good activity; 3 means full activity; conditions: 100 ppm, 5 days at 19° C.
Method: Trichinella spiralis In-vitro
Trichinella spiralis larvae are isolated from skeletal muscles and subcutaneous muscles of SPF/CFW1 mice and collected in aqueous 0.9% NaCl containing 20 μg of sisomycin/ml. Per determination, 20 larvae are incubated in 2 ml of a nutrient solution (20 g of Bacto Casitone/l, 10 g of yeast extract/l, 5 g of glucose/l, 0.8 g of KH2PO4/l, 0.8 g of K2HPO4; […] of sisomycin/ml and 1 μg of Canesten/ml; pH=7.2).
The incubation and the determination have been described in Martin et al., Pesticide Science (1996) 48, 343-349. 10 mg of the test compound are dissolved in 0.5 ml of the stated solvent, and such an amount of the resulting solution is added to the incubation medium that the desired concentration is reached. The controls contain only the solvent.
After an incubation time of 5 days at a temperature of 19° C., the experiment is terminated. The anthelmintic activity of a substance is categorized into 4 stages. 0 means no activity, 1 means weak activity, 2 means good activity and 3 means full activity (<50%, 50-75%, >75%, 100% of the larvae dead).

[6] = tested on: Boophilus microplus resistant (SP-resistant Parkhurst strain); assay: Test with Boophilus microplus resistant (SP-resistant Parkhurst strain/II), injection; format: in vivo; conditions: injected into the abdomen, after 7 days; for kill (no oviposition of fertile eggs): 20 μg per animal
Method: Test with Boophilus microplus Resistant (SP-resistant Parkhurst Strain/II)
20 mg of active compound are dissolved in 1 ml of dimethyl sulphoxide, more dilute concentrations are prepared by dilution in the same solvent.
The test is carried out in 5 replications. 1 μl of the solutions is injected into the abdomen, and the animals are transferred into dishes and kept in a climatized room. After 7 days, the activity is checked by examination for oviposition of fertile eggs. Eggs whose fertility is not visible from the outside are stored in glass tubes in a controlled-environment cabinet until the larvae have hatched. An activity of 100% means that no tick has produced any fertile eggs.

[7] = tested on: peach aphid (Myzus persicae); assay: Myzus test; format: in vivo; conditions: 10 ppm, after 6 days, Vicia faba seedlings dipped
[8] = tested on: adults of Ctenocephalides felis; assay: Test with cat fleas/oral uptake; format: in vivo; conditions: 100 ppm in citrated cattle blood, after 28 h
Method: Test with Cat Fleas/Oral Uptake
15 μl of this formulation are added to 3 ml of citrated cattle blood and stirred.
10 unfed adult fleas (Ctenocephalides felis, strain “Georgi”) are placed into a chamber (Ø 3.2 cm) whose top and bottom are closed with gauze. A metal cylinder whose underside is covered with parafilm is placed onto the chamber. […] Whereas the blood is warmed to 37° C., the temperature in the area of the flea chambers is adjusted to 25° C. Controls are mixed with the same volume of DMSO, without addition of a compound. The determinations are carried out in triplicate.
After 28 h, the mortality in % (=dead fleas) is determined.

[9] = tested on: Blatella germanica or Periplaneta americana; assay: Cockroach test; format: in vivo; conditions: 100 ppm, dipped for 1 minute, after 7 days
Method: 20 mg of active compound are dissolved in 1 ml of dimethyl sulphoxide, more dilute concentrations are prepared by dilution with distilled H2O.
4 test animals are dipped for 1 minute into the preparation of active compound to be tested.
The test animals are transferred into plastic beakers and kept in a climatized room for 7 days, after which the kill rate is determined.

[10] = tested on: Boophilus microplus resistant (SP-resistant Parkhurst strain); assay: Test with Boophilus microplus resistant (SP-resistant Parkhurst strain/I), dip; format: in vivo; conditions: 100 ppm, adult females dipped for 1 minute
Method: Test with Boophilus microplus Resistant (SP-resistant Parkhurst Strain/I)
(§1) 20 mg of active compound are dissolved in 1 ml of dimethyl sulphoxide, more dilute concentrations are prepared by dilution with distilled water.
10 adult Boophilus microplus res. are dipped for 1 minute into the preparation of active compound to be tested. The animals are transferred into plastic beakers and kept in a climatized room, and the kill rate is then determined.

Lucilia cuprina larvae = assay: Blowfly larvae test/development-inhibitory action; format: in vivo; conditions: 100 ppm
Method: Blowfly Larvae Test/Development-inhibitory Action
as §1
About 20 Lucilia cuprina larvae are introduced into a test tube which contains about 1 cm^3 of horse meat and 0.5 ml of the preparation of active compound to be tested. After 24 hours and 48 hours, the efficacy of the preparation of active compound is determined. The test tubes are transferred into a beaker whose bottom is covered with sand. After a further 2 days, the test tubes are removed and the pupae are counted.
The efficacy of the preparation of active compound is assessed by the number of flies that have hatched after 1.5 times the period of development of an untreated control. 100% means that no flies have hatched; 0% means that all flies have hatched normally.

[11] = pH2, HPLC gradient method, acetonitrile/0.1% aqueous phosphoric acid, Table 1

melting point: 40 °C
SMILES: FC(F)=C(F)CCCCSc1nnc(-c2ccc(C(F)(F)F)cc2)o1 [Example 1, 2-(6,6,5-trifluorohex-5-enylthio)-5-(4-trifluoromethyl-phenyl)-1,3,4-oxadiazole]
kill [1]: 100%

SMILES: FC(F)=CCCCCSc1nnc(-c2ccc(C(F)(F)F)cc2)o1 [Example 2]
kill [2]: 100%
logP (pH2) [3, 11]: 4.77
nematicidal action (gall formation) (Meloidogyne incognita): 100%
kill [4]: 98%
anthelmintic activity class (larvae dead) [5]: no activity
kill (no oviposition of fertile eggs) [6]: 100%
kill [7]: 95%
kill (mortality) [8]: 93%

SMILES: CSc1nnc(SCCCCC(F)=C(F)F)s1 [Example 5]
logP (pH2) ([3]; pH 2): 3.69
nematicidal action (gall formation) (Meloidogyne incognita): 100%
kill (no oviposition of fertile eggs) [6]: 100%

SMILES: CSc1nnc(SCCCCC=C(F)F)s1 [Example 6]
kill [2]: 100%
logP (pH2) ([3]; pH 2): 3.79
kill [9]: 75%
kill [4]: 98%
activity (no oviposition of fertile eggs) ([6]; 0.8 μg per animal): 100%
activity (no oviposition of fertile eggs) ([6]; 4 μg per animal): 100%
kill (no oviposition of fertile eggs) [6]: 100%
kill [10]: 100%
kill [7]: 95%
kill (mortality) [8]: 81%

logP (pH2) ([3]; pH 2): 2.46
SMILES: C[S+]([O-])c1nnc(SCCCCC(F)=C(F)F)s1 (stereo not drawn) [Example 9]

SMILES: FC(F)=CCCCCSc1nnc(C(F)(F)F)s1 [Example 10]
logP (pH2) [3, 11]: 4.32
kill [9]: 100%
anthelmintic activity class (larvae dead) [5]: no activity
activity (no oviposition of fertile eggs) ([6]; 0.8 μg per animal): 100%
activity (no oviposition of fertile eggs) ([6]; 4 μg per animal): 100%
kill (no oviposition of fertile eggs) [6]: 100%
kill [1]: 100%
kill [10]: 100%
kill [7]: 100%
kill (mortality) [8]: 87%

logP (pH2) [3, 11]: 4.21
SMILES: FC(F)=C(F)CCCCSc1nnc(C(F)(F)F)s1 [Example 11]
kill [2]: 100%

SMILES: CC(C)CCSc1nnc(SCCCCC=C(F)F)s1 [Example 12]
kill [2]: 100%
logP (pH2) ([3]; pH 2): 5.68
nematicidal action (gall formation) (Meloidogyne incognita): 100%
kill [4]: 98%
anthelmintic activity class (larvae dead) [5]: no activity
kill (no flies hatched) (Lucilia cuprina larvae): 100%
activity (no oviposition of fertile eggs) ([6]; 0.8 μg per animal): 100%
activity (no oviposition of fertile eggs) ([6]; 4 μg per animal): 100%
kill (no oviposition of fertile eggs) [6]: 100%
kill [10]: 100%
kill (mortality) [8]: 94%

SMILES: CC(C)CCSc1nnc(SCCCCC(F)=C(F)F)s1 [Example 13]
logP (pH2) [3, 11]: 5.53
nematicidal action (gall formation) (Meloidogyne incognita): 100%

logP (pH2) ([3]; pH 2): 4.55
SMILES: FC(F)=C(F)CCCCSc1nnc(-c2cc(Cl)nc(Cl)c2)o1 [Example 16]

SMILES: FC(F)=C(F)CCCCSc1nnc(SCCCCC(F)=C(F)F)s1 [Example 21]
logP (pH2) ([3]; pH 2): 5.27
anthelmintic activity class (larvae dead) [5]: no activity
activity (no oviposition of fertile eggs) ([6]; 0.8 μg per animal): 100%
activity (no oviposition of fertile eggs) ([6]; 4 μg per animal): 100%
kill (no oviposition of fertile eggs) [6]: 100%

logP (pH2) ([3]; pH 2): 3.80
SMILES: CCOc1nnc(SCCCCC(F)=C(F)F)s1 [Example 24]

logP (pH2) ([3]; pH 2): 4.24
SMILES: CC(C)Oc1nnc(SCCCCC(F)=C(F)F)s1 [Example 25]

logP (pH2) ([3]; pH 2): 4.71
SMILES: FC(F)=C(F)CCCCSc1nnc(SCCC(F)=C(F)F)s1 [Example 27]

logP (pH2) ([3]; pH 2): 4.84
SMILES: FC(F)=CCCCCSc1nnc(SCCC(F)=C(F)F)s1 [Example 28]

logP (pH2) ([3]; pH 2): 3.82
SMILES: FC(F)=C(F)CCCCSc1nnc(SC(F)F)s1 [Example 29]

logP (pH2) ([3]; pH 2): 3.91
SMILES: FC(F)=CCCCCSc1nnc(SC(F)F)s1 [Example 30]

logP (pH2) ([3]; pH 2): 1.48
SMILES: FC(F)=CCCCCSC1=NCCCS1 [IB-1]

logP (pH2) ([3]; pH 2): 1.51
SMILES: FC(F)=C(F)CCCCSC1=NCCCS1 [IB-2]
